How the values were obtained:
P42 FVB mice [1] = experiment: Cisplatin-induced hearing loss in adult mice (ABR, OHC counts, pERK); conditions: 75 mg/kg oral gavage, cisplatin 30 mg/kg i.p.
Experimental: As described in Fig. 4A, baseline auditory brainstem response (ABR) thresholds for P42 FVB mice were established 1 week before experimental procedures. […] Animals were allowed 21 days after cisplatin injection to recover, and final ABR thresholds were recorded.
Ten milligrams of cisplatin (479306, Sigma-Aldrich) powder was dissolved in 10 ml of sterile saline (0.9% NaCl) at 37°C for 40 to 60 min. Cisplatin was administered to FVB mice at 30 mg/kg via intraperitoneal injection. One day before cisplatin injection, mice received 1 ml of saline by subcutaneous injection. To ameliorate dehydration after cisplatin injection, 1 ml of warm saline was injected twice per day for at least 7 days or until body weight started to recover. The cages of cisplatin-treated mice were placed on the heating pad for at least 7 days or until body weight began to recover. Fresh mush food was daily given for at least 7 days.
(§1) Compounds were dissolved in a mixture of 10% DMSO, 5% Tween 80 (P1754, Sigma-Aldrich), 40% PEG-E-300 (91462-1KG, Sigma-Aldrich), and 45% 0.9% saline.
(§2) ABR in mice was measured for left ears as described previously with minor modifications ([13], [34]). In brief, ABR waveforms were recorded in a sound booth (Industrial Acoustic Company) by using subdermal needles positioned in the skull, below the pinna, and at the base of the tail, and the responses were fed into a low-impedance Medusa digital biological amplifier system (RA4L; TDT; 20-dB gain). At each frequency, the stimulus intensity was reduced from 90 to 0 dB in 10-dB steps to determine the threshold decibel SPL when the electrical response was just above the noise floor. ABR waveforms were averaged in response to 500 tone bursts. The recorded signals were filtered by a band-pass filter from 300 Hz to 3 kHz. Pretreatment ABR recordings of adult FVB mice (aged 6 weeks) were acquired 1 week before all treatments, and posttreatment ABR measurements were recorded 21 days after cisplatin treatment or 14 days after noise exposure. ABR threshold was determined by the presence of any of three or more of the five waveform peaks. […] All thresholds and shifts were determined independently by two experimenters for each mouse. Individual ABR wave 1 amplitudes were measured as the difference between the positive peak and the following negative trough.
Cochleae from adult mice were prepared and examined as described previously ([85], [86]). All images were acquired with a confocal microscope (LSM 700 or 710, Zeiss). Samples were stained with phalloidin (A12379 or A12380, Invitrogen) or with antibodies for other markers. The following primary antibodies were used: anti–myosin VI (1:400; 25-6791; Proteus Bioscience), anti–myosin VIIa ([…];138-1-s, Developmental Studies Hybridoma Bank), anti-Tuj1 (1:250; 801201, BioLegend), anti-pERK (1:400; 9101S, Cell Signaling Technology), or anti-Ctbp2 (1:500; 612044, BD Transduction). Anti-rabbit Alexa Fluor 488 (1:400; A11034) and anti-mouse Alexa Fluor 647 (1:400; A31571) secondary antibodies were purchased from Invitrogen. ProLong gold antifade reagent with 4′,6-diamidino-2-phenylindole (P36941, Invitrogen) was used to counterstain nuclei.

[2] = system: human neuroblastoma and lung carcinoma cell lines; experiment: Tumor Cell Titer-Glo viability assay, interference with cisplatin tumor killing (six cell lines); format: cell-based; conditions: compound at 3× protective IC50 (dabrafenib 35 μM, AZD5438 […]) + 15 μM cisplatin (200 μM for A549), 48 hours
Source text: (§3) In clinical settings, cisplatin is used to treat several tumor types, including neuroblastoma and lung carcinoma. […] Medium-alone–, cisplatin-alone–, and dabrafenib-alone–treated cells were used as controls, and viability was reported as percent survival compared to medium alone (Fig. 4E).
(§4) Three human neuroblastoma cell lines IMR-32, SH-SY5Y, and, SK-N-AS, as well as three human lung carcinoma cell lines SHP-77 small cell, H1155 non–small cell, and A549 non–small cell, were used to determine the compounds’ effect on cisplatin’s tumor-killing efficacy ([77]–[83]). Cell lines were purchased from the American Type Culture Collection (ATCC), and cell culture was conducted according to ATCC specifications. Neuroblastoma cell lines IMR-32 and SH-SY5Y are maintained in Dulbecco’s modified Eagle’s medium (DMEM) 1× with glucose (4.5 g/liter), L-glutamine, and sodium pyruvate (10-013-CV, Corning) with 10% fetal bovine serum (FBS) (35011132, Corning) and ampicillin (50 μg/ml; A5354-10ML, Sigma-Aldrich) added. The SK-N-AS cell line is maintained in DMEM 1× with D-glucose (4.5 g/liter), L-glutamine, and 25 mM Hepes (12430-054, Gibco) with 10% FBS, 0.1 mM nonessential amino acids, and ampicillin (50 μg/ml) added. A549 cells are maintained in F-12K medium with L-glutamine (30-2004, ATCC) with 10% FBS and ampicillin (50 μg/ml) added. […]

SK-N-AS = experiment: Tumor Cell Titer-Glo viability assay, SK-N-AS; format: cell-based, human; conditions: SKN-AS, + 15 μM cisplatin, 48 hours
Source text: as §3, §4

P42 FVB mice [3] = experiment: Noise-induced hearing loss in adult mice (ABR, DPOAE, Ctbp2 puncta, pERK); format: in vivo, mouse
Experimental: Noise injury cannot always be predicted, and pretreatment is often not an option.
as §1, §2
Mice were placed in individual cages in a custom-made acrylic chamber. The sound stimulus was produced by System RZ6 (TDT) equipment and amplified using a 75-A power amplifier (Crown). Sound was delivered to the acrylic chamber via a speaker horn (JBL). The SPL was calibrated with a 1/4-inch free-field microphone (PCB). Before experimental noise exposure, four quadrants of the cage inside the chamber were sampled with the 1/4-inch microphone to ensure that the SPL varied by <0.5 dB across the measured positions. Adult mice were then exposed to 2 hours of octave band noise (8 to 16 kHz) at 100 dB.
Organs of Corti were costained with anti-Ctbp2 and anti–myosin VI antibodies. Confocal imaging was performed using a Zeiss 700 scanning confocal microscope with a 63× objective. Visualization and projections were performed using ZEN 2009 or ZEN 2012 software (Zeiss). Ctbp2 puncta were visualized and counted on the reconstructed three-dimensional images by using the ZEN 2009 or ZEN 2012 three-dimensional construct function as previously reported ([54]). […] Images were acquired around 16-kHz cochlear regions, and each image included 12 to 18 IHCs that were quantified as total number of Ctbp2 puncta divided by total number of IHCs per image.

[4] = system: Tg(brn3c:GFP) zebrafish larvae neuromast HCs; experiment: Zebrafish lateral line neuromast hair cell loss after cisplatin; format: in vivo; conditions: 1 hour pretreatment, 6 hours 400 μM cisplatin; dabrafenib 100 nM
Source text: Lateral line neuromasts of zebrafish are a well-established model for the study of drug protection from cisplatin or aminoglycoside toxicity because their HCs are considered homologous to mammalian HCs and readily accessible to compounds in vivo ([47]–[49]). As in our previous studies, MI1 (medial neuromast 1) and O1-2 (otic line) neuromasts were examined in Tg(brn3c:GFP) zebrafish larvae 5 days after fertilization ([50], [51]). […] Green fluorescent protein (GFP) (brn3c) and otoferlin staining were used to identify neuromast HCs. In fig.
Zebrafish (D. rerio) experimental larvae of either sex were obtained by pair mating of adult fish maintained at Boys Town National Research Hospital. We used zebrafish line Tg(brn3c:GFP) that expresses a membrane-bound GFP in HCs. Fish were maintained at 28.5°C in E3 media [5 mM NaCl, 0.17 mM KCl, 0.33 mM CaCl2, and 0.33 MgSO4 (pH 7.2)] at a density of 50 embryos/larvae per […] petri dish. Experimental animals were used at 5 days post-fertilization and cryo-anesthetized after treatment and before fixation. Average HC counts in our studies were obtained from the following three neuromasts: MI1 (medial neuromast 1) and O1 and O2 (otic line).

Cc1ncc(-c2ccnc(Nc3ccc(S(C)(=O)=O)cc3)n2)n1C(C)C [AZD5438]
protection against cisplatin-induced hearing loss, pretreatment (P42 FVB mice [1]): protected
effect on cisplatin-induced tumor cell death [2]: did not interfere with or enhanced
interference with cisplatin killing ability (SK-N-AS): interfered with cisplatin killing ability
reduction of ABR threshold shifts, treatment after noise (P42 FVB mice [3]; 35 mg/kg twice daily oral gavage, post-noise): did not significantly reduce
protection against noise-induced hearing loss, pretreatment (P42 FVB mice [3]; 75 mg/kg oral gavage pretreatment): protected
protection from cisplatin-induced neuromast HC loss [4]: confer protection

Source: publication PMC7821884, “BRAF inhibition protects against hearing loss in mice” (Science Advances, 2020)
